Assay results from ChEMBL document CHEMBL1151650, “New Furostanol Glycosides from Asparagus plumosus Leaves” (J Nat Prod, 1985).

Tested on: Biomphalaria glabrata
Assay: Toxic molluscicidal activity against Biomphalaria glabrata
Type: ADME, organism-based
Settings: in vivo

| Compound | Activity |
| --- | --- |
| C[C@@H](CC[C@@]1(O)O[C@H]2C[C@H]3[C@@H]4CC=C5C[C@@H](O[C@@H]6O[C@H](CO)[C@@H](O)[C@H](O[C@@H]7O[C@@H](C)[C@H](O)[C@@H](O)[C@H]7O)[C@H]6O[C@@H]6O[C@@H](C)[C@H](O)[C@@H](O)[C@H]6O)CC[C@]5(C)[C@H]4CC[C@]3(C)[C@H]2[C@@H]1C)CO[C@@H]1O[C@H](CO)[C@@H](O)[C@H](O)[C@H]1O | Non-toxic |
| CO[C@]1(CC[C@H](C)CO[C@@H]2O[C@H](CO)[C@@H](O)[C@H](O)[C@H]2O)O[C@H]2C[C@H]3[C@@H]4CC=C5C[C@@H](O[C@@H]6O[C@H](CO)[C@@H](O)[C@H](O[C@@H]7O[C@@H](C)[C@H](O)[C@@H](O)[C@H]7O)[C@H]6O[C@@H]6O[C@@H](C)[C@H](O)[C@@H](O)[C@H]6O)CC[C@]5(C)[C@H]4CC[C@]3(C)[C@H]2[C@@H]1C | Non-toxic |
